Test results taken from PubChem BioAssay AID1963854 (Molecular Pharmacology Branch, DTP, NCI, 2024).

Test system: 186277-243-T-J2-PDC complex spheroid viability
Test: Anticancer human tumor 186277-243-T-J2-PDC patient-derived colon adenocarcinoma cell line growth inhibition [POLQ]
Conditions: for IC50: curve of first compound; for viability, T/C: stronger effect = lower value
Procedure, shortened: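 PDC + HUVEC + MSC complex spheroids; POLQ inhibitors ± partner drugs; top conc. at/near clinical Cmax, else 10 microM (SN-38 1 microM), half-log dilutions; 37 degrees C, 5% CO2.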

[1] = second compound 0.0316 µM, first compound 0.0316 µM
[2] = second compound 0.0316 µM, first compound 0.1 µM
[3] = second compound 0.1 µM, first compound 0.0316 µM
[4] = second compound 0.1 µM, first compound 0.1 µM
[5] = second compound 0.316 µM, first compound 0.0316 µM
[6] = second compound 0.316 µM, first compound 0.1 µM
[7] = second compound 1 µM, first compound 0.0316 µM
[8] = second compound 1 µM, first compound 0.1 µM
[9] = second compound 3.16 µM, first compound 0.0316 µM
[10] = second compound 3.16 µM, first compound 0.1 µM
[11] = second compound 10 µM, first compound 0.0316 µM
[12] = second compound 10 µM, first compound 0.1 µM
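Also: spheroids exposed to compounds for seven days.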
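For viability, T/C in this document: 100% = DMSO vehicle control viability.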

SMILES: CNCc1ccc(-c2[nH]c3cc(F)cc4c3c2CCNC4=O)cc1 + Cc1cccc(N(C)C(=O)C2C(O)CCN2c2nc(C)cc(C(F)(F)F)c2C#N)c1
- IC50 (second compound 0.0316 µM): > 10 µM
- IC50 (second compound 0.1 µM): > 10 µM
- IC50 (second compound 0.316 µM): > 10 µM
- IC50 (second compound 1 µM): > 10 µM
- IC50 (second compound 3.16 µM): > 10 µM
- IC50 (second compound 10 µM): > 10 µM
- viability, T/C [1]: 105%
- viability, T/C [2]: 97.5%
- viability, T/C (second compound 0.0316 µM, first compound 0.316 µM): 104%
- viability, T/C (second compound 0.0316 µM, first compound 1 µM): 102%
- viability, T/C (second compound 0.0316 µM, first compound 3.16 µM): 102%
- viability, T/C (second compound 0.0316 µM, first compound 10 µM): 97.5%
- viability, T/C [3]: 81.2%
- viability, T/C [4]: 98.9%
- viability, T/C (second compound 0.1 µM, first compound 0.316 µM): 107%
- viability, T/C (second compound 0.1 µM, first compound 1 µM): 108%
- viability, T/C (second compound 0.1 µM, first compound 3.16 µM): 115%
- viability, T/C (second compound 0.1 µM, first compound 10 µM): 91.1%
- viability, T/C [5]: 103%
- viability, T/C [6]: 109%
- viability, T/C (second compound 0.316 µM, first compound 0.316 µM): 94.8%
- viability, T/C (second compound 0.316 µM, first compound 1 µM): 105%
- viability, T/C (second compound 0.316 µM, first compound 3.16 µM): 93.8%
- viability, T/C (second compound 0.316 µM, first compound 10 µM): 91.7%
- viability, T/C [7]: 102%
- viability, T/C [8]: 105%
- viability, T/C (second compound 1 µM, first compound 0.316 µM): 95.2%
- viability, T/C (second compound 1 µM, first compound 1 µM): 95%
- viability, T/C (second compound 1 µM, first compound 3.16 µM): 105%
- viability, T/C (second compound 1 µM, first compound 10 µM): 76.9%
- viability, T/C [9]: 100%
- viability, T/C [10]: 108%
- viability, T/C (second compound 3.16 µM, first compound 0.316 µM): 107%
- viability, T/C (second compound 3.16 µM, first compound 1 µM): 105%
- viability, T/C (second compound 3.16 µM, first compound 3.16 µM): 115%
- viability, T/C (second compound 3.16 µM, first compound 10 µM): 78.4%
- viability, T/C [11]: 106%
- viability, T/C [12]: 98.4%
- viability, T/C (second compound 10 µM, first compound 0.316 µM): 107%
- viability, T/C (second compound 10 µM, first compound 1 µM): 90.1%
- viability, T/C (second compound 10 µM, first compound 3.16 µM): 94.2%
- viability, T/C (second compound 10 µM, first compound 10 µM): 69.4%

SMILES: Cn1ncnc1[C@H]1c2n[nH]c(=O)c3cc(F)cc(c23)N[C@@H]1c1ccc(F)cc1 + Cc1cccc(N(C)C(=O)C2C(O)CCN2c2nc(C)cc(C(F)(F)F)c2C#N)c1
- IC50 (second compound 0.0316 µM): > 0.1 µM
- IC50 (second compound 0.1 µM): > 0.1 µM
- IC50 (second compound 0.316 µM): > 0.1 µM
- IC50 (second compound 1 µM): > 0.1 µM
- IC50 (second compound 3.16 µM): > 0.1 µM
- IC50 (second compound 10 µM): > 0.1 µM
- viability, T/C (second compound 0.0316 µM, first compound 0.000316 µM): 101%
- viability, T/C (second compound 0.0316 µM, first compound 0.001 µM): 102%
- viability, T/C (second compound 0.0316 µM, first compound 0.00316 µM): 104%
- viability, T/C (second compound 0.0316 µM, first compound 0.01 µM): 106%
- viability, T/C [1]: 118%
- viability, T/C [2]: 120%
- viability, T/C (second compound 0.1 µM, first compound 0.000316 µM): 87.9%
- viability, T/C (second compound 0.1 µM, first compound 0.001 µM): 99.4%
- viability, T/C (second compound 0.1 µM, first compound 0.00316 µM): 113%
- viability, T/C (second compound 0.1 µM, first compound 0.01 µM): 106%
- viability, T/C [3]: 113%
- viability, T/C [4]: 119%
- viability, T/C (second compound 0.316 µM, first compound 0.000316 µM): 90.3%
- viability, T/C (second compound 0.316 µM, first compound 0.001 µM): 92.6%
- viability, T/C (second compound 0.316 µM, first compound 0.00316 µM): 102%
- viability, T/C (second compound 0.316 µM, first compound 0.01 µM): 115%
- viability, T/C [5]: 145%
- viability, T/C [6]: 122%
- viability, T/C (second compound 1 µM, first compound 0.000316 µM): 89%
- viability, T/C (second compound 1 µM, first compound 0.001 µM): 105%
- viability, T/C (second compound 1 µM, first compound 0.00316 µM): 107%
- viability, T/C (second compound 1 µM, first compound 0.01 µM): 117%
- viability, T/C [7]: 119%
- viability, T/C [8]: 111%
- viability, T/C (second compound 3.16 µM, first compound 0.000316 µM): 101%
- viability, T/C (second compound 3.16 µM, first compound 0.001 µM): 106%
- viability, T/C (second compound 3.16 µM, first compound 0.00316 µM): 111%
- viability, T/C (second compound 3.16 µM, first compound 0.01 µM): 113%
- viability, T/C [9]: 103%
- viability, T/C [10]: 105%
- viability, T/C (second compound 10 µM, first compound 0.000316 µM): 99.5%
- viability, T/C (second compound 10 µM, first compound 0.001 µM): 92.8%
- viability, T/C (second compound 10 µM, first compound 0.00316 µM): 95.8%
- viability, T/C (second compound 10 µM, first compound 0.01 µM): 116%
- viability, T/C [11]: 113%
- viability, T/C [12]: 113%
